Patent publication US20230074545A1, “TREATMENT OF CANCER WITH CDK12/13 INHIBITORS” (Kinnate Biopharma Inc., priority 2019, published 2023)

Key:
Test in all cases: Radiometric kinase panel
Type in all cases: biochemical
EIF2AK2 = biological target: T1, EIF2AK2 (Homo sapiens, UniProt P19525)
T1 construct: either as full-length or enzymatically active fragments; purchased ProQinase GmbH (Reaction Biology); host or cells: Sf9 insect cells or E. coli
Outline: (§1)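 Activity was measured radiometrically from [gamma-33P]-ATP incorporation into substrate. The kinases were recombinant human GST- or His-tagged proteins, full-length or active fragments, expressed in Sf9 or E. coli. Compound in 10% DMSO was added before the enzyme/substrate mix, which started the reaction.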

PDGFRalpha = biological target: T2, PDGFRalpha (Homo sapiens, UniProt P16234)
T2 construct: either as full-length or enzymatically active fragments; purchased ProQinase GmbH (Reaction Biology)
Outline: as §1

CDK16/CycY = biological target: T3, CDK16/CycY (Homo sapiens, UniProt Q00536)
T3 construct: either as full-length or enzymatically active fragments; purchased ProQinase GmbH (Reaction Biology)
Outline: as §1

JAK2 = biological target: T4, JAK2 (Homo sapiens, UniProt O60674)
T4 construct: either as full-length or enzymatically active fragments; purchased ProQinase GmbH (Reaction Biology)
Outline: as §1

FGR = biological target: T5, FGR (Homo sapiens, UniProt P09769)
T5 construct: purchased ProQinase GmbH (Reaction Biology)
Outline: as §1

MEK1 = biological target: T6, MEK1 (Homo sapiens, UniProt Q02750)
T6 construct: either as full-length or enzymatically active fragments; purchased ProQinase GmbH (Reaction Biology); host or cells: Sf9 insect cells or E. coli
Outline: as §1

EPHB3 = biological target: T7, EPHB3 (Homo sapiens, UniProt P54753)
T7 construct: either as full-length or enzymatically active fragments; purchased ProQinase GmbH (Reaction Biology)
Outline: as §1

JAK3 = biological target: T8, JAK3 (Homo sapiens, UniProt P52333)
T8 construct: purchased ProQinase GmbH (Reaction Biology)
Outline: as §1

CSF1R = biological target: T9, CSF1R (Homo sapiens, UniProt P07333)
T9 construct: either as full-length or enzymatically active fragments; purchased ProQinase GmbH (Reaction Biology); host or cells: Sf9 insect cells or E. coli
Outline: as §1

RPS6KA4 = biological target: T10, RPS6KA4 (Homo sapiens, UniProt O75676)
T10 construct: either as full-length or enzymatically active fragments; purchased ProQinase GmbH (Reaction Biology)
Outline: as §1

MEKK2 = biological target: T11, MEKK2 (Homo sapiens, UniProt Q9Y2U5)
T11 construct: either as full-length or enzymatically active fragments; purchased ProQinase GmbH (Reaction Biology)
Outline: as §1

ARK5 = biological target: T12, ARK5 (Homo sapiens, UniProt O60285)
T12 construct: either as full-length or enzymatically active fragments; purchased ProQinase GmbH (Reaction Biology); host or cells: Sf9 insect cells or E. coli (not specified per kinase)
Outline: as §1

MTOR = biological target: T13, MTOR (Homo sapiens, UniProt P42345)
T13 construct: purchased ProQinase GmbH (Reaction Biology); host or cells: Sf9 insect cells or E. coli (not specified per kinase)
Outline: as §1

ROCK1 = biological target: T14, ROCK1 (Homo sapiens, UniProt Q13464)
T14 construct: either as full-length or enzymatically active fragments; purchased ProQinase GmbH (Reaction Biology)
Outline: as §1

INSR = biological target: T15, INSR (Homo sapiens, UniProt P06213)
T15 construct: either as full-length or enzymatically active fragments; purchased ProQinase GmbH (Reaction Biology); host or cells: Sf9 insect cells or E. coli (not specified per kinase)
Outline: as §1

MKNK1 = biological target: T16, MKNK1 (Homo sapiens, UniProt Q9BUB5)
T16 construct: purchased ProQinase GmbH (Reaction Biology)
Outline: as §1

ZAP70 = biological target: T17, ZAP70 (Homo sapiens, UniProt P43403)
T17 construct: either as full-length or enzymatically active fragments; purchased ProQinase GmbH (Reaction Biology)
Outline: as §1

TRKC = biological target: T18, TRKC (Homo sapiens, UniProt Q16288)
T18 construct: either as full-length or enzymatically active fragments; purchased ProQinase GmbH (Reaction Biology)
Outline: as §1

MAPKAPK2 = biological target: T19, MAPKAPK2 (Homo sapiens, UniProt P49137)
T19 construct: either as full-length or enzymatically active fragments; purchased ProQinase GmbH (Reaction Biology); host or cells: Sf9 insect cells or E. coli
Outline: as §1

ACVRL1 = biological target: T20, ACVRL1 (Homo sapiens, UniProt P37023)
T20 construct: either as full-length or enzymatically active fragments; purchased ProQinase GmbH (Reaction Biology)
Outline: as §1

CDK18/CycY = biological target: T21, CDK18/CycY (Homo sapiens, UniProt Q07002)
T21 construct: either as full-length or enzymatically active fragments; purchased ProQinase GmbH (Reaction Biology)
Outline: as §1

DYRK2 = biological target: T22, DYRK2 (Homo sapiens, UniProt Q92630)
T22 construct: purchased ProQinase GmbH (Reaction Biology); host or cells: Sf9 insect cells or E. coli (not specified per kinase)
Outline: as §1

YES = biological target: T23, YES (Homo sapiens, UniProt P07947)
T23 construct: either as full-length or enzymatically active fragments; purchased ProQinase GmbH (Reaction Biology)
Outline: as §1

MAP4K2 = biological target: T24, MAP4K2 (Homo sapiens, UniProt Q12851)
T24 construct: purchased ProQinase GmbH (Reaction Biology)
Outline: as §1

CAMK2A = biological target: T25, CAMK2A (Homo sapiens, UniProt Q9UQM7)
T25 construct: either as full-length or enzymatically active fragments; purchased ProQinase GmbH (Reaction Biology)
Outline: as §1

CDC42BPA = biological target: T26, CDC42BPA (Homo sapiens, UniProt Q5VT25)
T26 construct: either as full-length or enzymatically active fragments; purchased ProQinase GmbH (Reaction Biology); host or cells: Sf9 insect cells or E. coli
Outline: as §1

EPHA3 = biological target: T27, EPHA3 (Homo sapiens, UniProt P29320)
T27 construct: either as full-length or enzymatically active fragments; purchased ProQinase GmbH (Reaction Biology)
Outline: as §1

NEK11 = biological target: T28, NEK11 (Homo sapiens, UniProt Q8NG66)
T28 construct: either as full-length or enzymatically active fragments; purchased ProQinase GmbH (Reaction Biology)
Outline: as §1

MST1 = biological target: T29, MST1 (Homo sapiens, UniProt Q13043)
T29 construct: purchased ProQinase GmbH (Reaction Biology); host or cells: Sf9 insect cells or E. coli (not specified per kinase)
Outline: as §1

TGFBR1 = biological target: T30, TGFBR1 (Homo sapiens, UniProt P36897)
T30 construct: either as full-length or enzymatically active fragments; purchased ProQinase GmbH (Reaction Biology)
Outline: as §1

T20 sequence (P37023 22-503): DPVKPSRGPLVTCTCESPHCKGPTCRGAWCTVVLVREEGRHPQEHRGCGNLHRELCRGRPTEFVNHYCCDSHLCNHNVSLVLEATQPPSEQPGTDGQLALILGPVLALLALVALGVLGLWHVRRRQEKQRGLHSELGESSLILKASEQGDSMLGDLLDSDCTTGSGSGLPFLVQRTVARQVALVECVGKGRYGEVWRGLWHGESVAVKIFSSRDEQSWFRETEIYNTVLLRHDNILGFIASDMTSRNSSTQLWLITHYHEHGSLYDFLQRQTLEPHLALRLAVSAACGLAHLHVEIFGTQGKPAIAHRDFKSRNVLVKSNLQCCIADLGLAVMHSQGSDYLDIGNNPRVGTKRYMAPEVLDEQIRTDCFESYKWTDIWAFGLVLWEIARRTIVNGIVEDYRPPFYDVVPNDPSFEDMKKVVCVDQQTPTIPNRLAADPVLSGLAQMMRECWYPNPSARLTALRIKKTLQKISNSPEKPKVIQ
T12 sequence (O60285 whole entry, the tested form may be a part): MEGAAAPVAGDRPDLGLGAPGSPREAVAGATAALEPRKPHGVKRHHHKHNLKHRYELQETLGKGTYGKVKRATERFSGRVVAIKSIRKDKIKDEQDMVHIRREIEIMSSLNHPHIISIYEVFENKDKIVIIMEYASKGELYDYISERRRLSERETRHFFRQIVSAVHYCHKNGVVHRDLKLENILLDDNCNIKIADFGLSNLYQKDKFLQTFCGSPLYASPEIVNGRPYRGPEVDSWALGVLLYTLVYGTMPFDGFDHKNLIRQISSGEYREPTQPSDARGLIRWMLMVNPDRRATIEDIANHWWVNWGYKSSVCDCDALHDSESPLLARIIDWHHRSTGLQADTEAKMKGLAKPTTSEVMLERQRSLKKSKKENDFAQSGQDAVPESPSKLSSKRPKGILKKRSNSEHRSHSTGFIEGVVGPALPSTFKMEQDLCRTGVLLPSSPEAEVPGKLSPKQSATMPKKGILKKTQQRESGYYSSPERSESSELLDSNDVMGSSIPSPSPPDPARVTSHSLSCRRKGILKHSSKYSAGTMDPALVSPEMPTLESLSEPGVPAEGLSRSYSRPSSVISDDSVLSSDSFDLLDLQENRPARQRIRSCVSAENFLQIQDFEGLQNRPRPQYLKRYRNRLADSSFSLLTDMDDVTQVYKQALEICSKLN
T26 sequence (Q5VT25 whole entry, the tested form may be a part): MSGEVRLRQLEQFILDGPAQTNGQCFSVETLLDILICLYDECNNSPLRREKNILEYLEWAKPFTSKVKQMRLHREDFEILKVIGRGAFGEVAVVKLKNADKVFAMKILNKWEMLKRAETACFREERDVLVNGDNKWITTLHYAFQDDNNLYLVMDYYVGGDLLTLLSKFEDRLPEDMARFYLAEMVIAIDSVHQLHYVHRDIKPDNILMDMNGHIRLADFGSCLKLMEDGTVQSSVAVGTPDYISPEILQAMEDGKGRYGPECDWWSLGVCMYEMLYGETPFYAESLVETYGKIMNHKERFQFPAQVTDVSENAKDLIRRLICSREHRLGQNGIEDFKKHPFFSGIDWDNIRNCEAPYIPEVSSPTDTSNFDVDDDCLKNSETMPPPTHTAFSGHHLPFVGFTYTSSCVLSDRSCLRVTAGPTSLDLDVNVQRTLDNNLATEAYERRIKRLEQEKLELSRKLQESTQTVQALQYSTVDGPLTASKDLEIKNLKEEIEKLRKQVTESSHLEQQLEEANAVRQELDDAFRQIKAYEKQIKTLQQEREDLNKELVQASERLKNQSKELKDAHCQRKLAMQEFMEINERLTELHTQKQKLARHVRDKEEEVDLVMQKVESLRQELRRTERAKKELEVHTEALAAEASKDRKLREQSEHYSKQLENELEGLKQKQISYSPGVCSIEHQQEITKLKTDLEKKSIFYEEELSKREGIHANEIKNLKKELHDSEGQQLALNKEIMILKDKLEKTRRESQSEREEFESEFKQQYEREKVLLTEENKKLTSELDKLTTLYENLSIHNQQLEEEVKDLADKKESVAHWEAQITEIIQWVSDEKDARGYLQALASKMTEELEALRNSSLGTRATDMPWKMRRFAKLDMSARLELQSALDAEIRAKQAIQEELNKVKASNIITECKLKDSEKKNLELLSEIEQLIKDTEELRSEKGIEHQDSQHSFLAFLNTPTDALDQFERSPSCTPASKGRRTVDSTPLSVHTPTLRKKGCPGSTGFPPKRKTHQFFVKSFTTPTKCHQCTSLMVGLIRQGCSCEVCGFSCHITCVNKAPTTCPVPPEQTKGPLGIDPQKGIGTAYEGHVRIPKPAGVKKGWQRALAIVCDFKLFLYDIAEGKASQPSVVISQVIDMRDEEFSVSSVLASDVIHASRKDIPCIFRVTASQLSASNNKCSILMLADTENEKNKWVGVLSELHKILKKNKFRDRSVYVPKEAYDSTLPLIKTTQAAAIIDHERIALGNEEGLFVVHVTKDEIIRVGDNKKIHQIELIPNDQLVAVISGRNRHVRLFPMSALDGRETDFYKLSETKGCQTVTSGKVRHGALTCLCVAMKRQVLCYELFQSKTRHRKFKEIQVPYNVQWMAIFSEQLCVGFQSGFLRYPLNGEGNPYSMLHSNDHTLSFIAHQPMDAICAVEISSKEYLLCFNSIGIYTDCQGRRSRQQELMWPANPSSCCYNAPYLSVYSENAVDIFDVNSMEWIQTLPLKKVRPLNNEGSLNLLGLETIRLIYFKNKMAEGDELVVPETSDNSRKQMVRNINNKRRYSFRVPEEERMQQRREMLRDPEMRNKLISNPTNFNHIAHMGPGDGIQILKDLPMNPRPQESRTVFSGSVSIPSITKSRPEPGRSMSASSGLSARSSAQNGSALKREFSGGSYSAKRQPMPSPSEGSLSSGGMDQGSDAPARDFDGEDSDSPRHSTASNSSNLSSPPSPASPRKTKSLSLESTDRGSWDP
T9 sequence (P07333 20-972): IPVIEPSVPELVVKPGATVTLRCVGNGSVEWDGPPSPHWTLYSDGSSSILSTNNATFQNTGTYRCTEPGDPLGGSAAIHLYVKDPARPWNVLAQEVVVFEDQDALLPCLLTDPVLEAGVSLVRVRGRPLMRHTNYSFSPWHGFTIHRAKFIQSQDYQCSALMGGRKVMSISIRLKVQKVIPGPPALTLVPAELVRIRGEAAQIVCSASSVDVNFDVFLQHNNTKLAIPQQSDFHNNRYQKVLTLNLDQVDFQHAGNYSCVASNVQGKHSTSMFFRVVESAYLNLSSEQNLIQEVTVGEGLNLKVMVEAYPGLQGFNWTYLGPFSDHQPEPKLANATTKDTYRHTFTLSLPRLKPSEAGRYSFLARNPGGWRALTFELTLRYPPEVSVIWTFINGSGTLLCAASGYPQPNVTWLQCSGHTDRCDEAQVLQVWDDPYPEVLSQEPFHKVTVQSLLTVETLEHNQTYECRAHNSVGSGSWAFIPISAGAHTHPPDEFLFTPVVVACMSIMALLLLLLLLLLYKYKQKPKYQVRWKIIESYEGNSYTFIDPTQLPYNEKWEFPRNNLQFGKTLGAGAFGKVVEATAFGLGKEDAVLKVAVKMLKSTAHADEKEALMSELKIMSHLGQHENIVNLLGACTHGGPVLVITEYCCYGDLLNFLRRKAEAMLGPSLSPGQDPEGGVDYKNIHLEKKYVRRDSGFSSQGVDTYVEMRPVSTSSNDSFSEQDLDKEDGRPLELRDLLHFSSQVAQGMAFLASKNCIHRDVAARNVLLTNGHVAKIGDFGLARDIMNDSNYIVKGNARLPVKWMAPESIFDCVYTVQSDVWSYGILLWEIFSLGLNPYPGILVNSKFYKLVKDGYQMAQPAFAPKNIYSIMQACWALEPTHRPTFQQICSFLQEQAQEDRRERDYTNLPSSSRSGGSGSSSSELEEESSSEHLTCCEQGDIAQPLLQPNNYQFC
T23 sequence (P07947 whole entry, the tested form may be a part): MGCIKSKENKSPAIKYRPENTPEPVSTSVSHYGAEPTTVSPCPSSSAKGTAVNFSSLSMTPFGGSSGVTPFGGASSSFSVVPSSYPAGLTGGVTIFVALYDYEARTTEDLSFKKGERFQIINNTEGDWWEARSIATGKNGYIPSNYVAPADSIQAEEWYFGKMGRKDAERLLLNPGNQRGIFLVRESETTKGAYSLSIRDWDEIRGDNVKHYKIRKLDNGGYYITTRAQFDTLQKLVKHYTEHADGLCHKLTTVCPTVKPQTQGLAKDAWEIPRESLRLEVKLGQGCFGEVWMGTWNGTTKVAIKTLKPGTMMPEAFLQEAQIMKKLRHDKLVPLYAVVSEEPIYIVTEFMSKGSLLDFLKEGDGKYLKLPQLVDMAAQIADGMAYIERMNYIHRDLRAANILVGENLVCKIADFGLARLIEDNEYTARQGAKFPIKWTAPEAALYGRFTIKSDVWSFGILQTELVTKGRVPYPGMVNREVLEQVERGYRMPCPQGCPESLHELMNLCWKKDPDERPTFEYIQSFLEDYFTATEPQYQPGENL
T11 sequence (Q9Y2U5 whole entry, the tested form may be a part): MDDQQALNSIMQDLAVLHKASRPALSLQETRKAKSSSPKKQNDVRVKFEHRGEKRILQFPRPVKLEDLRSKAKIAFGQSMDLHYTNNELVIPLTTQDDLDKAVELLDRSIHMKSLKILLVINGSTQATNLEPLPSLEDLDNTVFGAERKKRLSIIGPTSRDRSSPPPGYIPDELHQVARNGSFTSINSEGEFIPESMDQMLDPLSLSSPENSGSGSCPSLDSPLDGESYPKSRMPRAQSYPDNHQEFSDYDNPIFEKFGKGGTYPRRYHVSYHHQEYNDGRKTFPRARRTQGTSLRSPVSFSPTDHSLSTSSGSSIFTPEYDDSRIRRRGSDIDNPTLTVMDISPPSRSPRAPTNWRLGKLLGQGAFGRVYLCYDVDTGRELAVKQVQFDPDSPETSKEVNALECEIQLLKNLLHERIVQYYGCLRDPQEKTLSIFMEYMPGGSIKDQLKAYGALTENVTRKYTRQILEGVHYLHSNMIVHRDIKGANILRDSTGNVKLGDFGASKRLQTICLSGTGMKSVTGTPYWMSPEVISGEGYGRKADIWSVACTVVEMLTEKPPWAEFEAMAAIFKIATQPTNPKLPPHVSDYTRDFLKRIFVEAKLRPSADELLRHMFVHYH

Structure (SMILES): C=CC(=O)Nc1ccc(C(=O)N2CC[C@@H](Nc3ncc(C#N)cn3)C2)cc1 [Compound 4, (R)-N-(4-(3-((5-cyanopyrimidin-2-yl)amino)pyrrolidine-1-carbonyl)phenyl)acrylamide]
- inhibition at 1 µM (EIF2AK2): 15%
- inhibition at 1 µM (PDGFRalpha): 7%
- inhibition at 1 µM (CDK16/CycY): 17%
- inhibition at 1 µM (JAK2): -6%
- inhibition at 1 µM (FGR): -1%
- inhibition at 1 µM (MEK1): 13%
- inhibition at 1 µM (EPHB3): 5%
- inhibition at 1 µM (JAK3): -1%
- inhibition at 1 µM (CSF1R): 14%
- inhibition at 1 µM (RPS6KA4): 5%
- inhibition at 1 µM (MEKK2): 8%
- inhibition at 1 µM (ARK5): 10%
- inhibition at 1 µM (MTOR): 1%
- inhibition at 1 µM (ROCK1): 15%
- inhibition at 1 µM (INSR): 8%
- inhibition at 1 µM (MKNK1): -2%
- inhibition at 1 µM (ZAP70): -6%
- inhibition at 1 µM (TRKC): -11%
- inhibition at 1 µM (MAPKAPK2): -24%
- inhibition at 1 µM (ACVRL1): 3%
- inhibition at 1 µM (CDK18/CycY): 20%
- inhibition at 1 µM (DYRK2): 1%
- inhibition at 1 µM (YES): -5%
- inhibition at 1 µM (MAP4K2): -1%
- inhibition at 1 µM (CAMK2A): -9%
- inhibition at 1 µM (CDC42BPA): -16%
- inhibition at 1 µM (EPHA3): 6%
- inhibition at 1 µM (NEK11): -5%
- inhibition at 1 µM (MST1): 1%
- inhibition at 1 µM (TGFBR1): 7%
